From ChEMBL document CHEMBL4138119, “Anti-diabetic activity of fused PPARγ-SIRT1 ligands with limited body-weight gain by mimicking calorie restriction and decreasing SGK1 expression” (Eur J Med Chem, 2017)
Calls of active or inactive are those of the source. The calls are words filed in the database; no cut-off is given here.

What was measured:
[1] = Modulation of SGK1 mRNA expression in HCCD cells at 20 uM after 24 hrs by RT-PCR method relative to control; type: functional, Homo sapiens
[2] = target: T1, Peroxisome proliferator-activated receptor alpha (Homo sapiens) (UniProt Q07869); experiment: Transactivation of human Gal4-fused PPARalpha LBD expressed in African green monkey COS7 cells after 24 hrs by luciferase reporter gene assay relative to WY14643; type: cell-based
T1 sequence (whole entry): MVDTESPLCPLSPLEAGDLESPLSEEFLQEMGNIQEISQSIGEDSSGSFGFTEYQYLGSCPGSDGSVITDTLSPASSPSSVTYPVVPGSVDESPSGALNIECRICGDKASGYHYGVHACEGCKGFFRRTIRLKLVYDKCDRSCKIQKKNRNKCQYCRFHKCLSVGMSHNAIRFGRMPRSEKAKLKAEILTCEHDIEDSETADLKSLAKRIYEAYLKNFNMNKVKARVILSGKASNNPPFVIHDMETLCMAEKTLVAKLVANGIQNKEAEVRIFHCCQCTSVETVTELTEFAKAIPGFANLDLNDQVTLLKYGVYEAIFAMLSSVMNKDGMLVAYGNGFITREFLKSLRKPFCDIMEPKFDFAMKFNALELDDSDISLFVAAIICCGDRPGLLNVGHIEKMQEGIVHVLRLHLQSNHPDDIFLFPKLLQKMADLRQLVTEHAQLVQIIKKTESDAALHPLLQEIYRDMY

[3] = tested on: Mus musculus; experiment: Toxicity in ob/ob mouse assessed as change in body weight at 3 mg/kg administered via oral gavage daily for 4 days measured on day 5 relative to control; type: organism-based; settings: in vivo, 96 h
[4] = target: T2, NAD-dependent protein deacetylase sirtuin-1 (Homo sapiens) (UniProt Q96EB6); experiment: Activation of recombinant human SIRT1 at 10 uM using C-terminal AMC labeled Arg-His-Lys-Lys (Ac) as substrate after 30 mins by FLUOR DE LYS fluorescent assay relative to control
T2 sequence (whole entry): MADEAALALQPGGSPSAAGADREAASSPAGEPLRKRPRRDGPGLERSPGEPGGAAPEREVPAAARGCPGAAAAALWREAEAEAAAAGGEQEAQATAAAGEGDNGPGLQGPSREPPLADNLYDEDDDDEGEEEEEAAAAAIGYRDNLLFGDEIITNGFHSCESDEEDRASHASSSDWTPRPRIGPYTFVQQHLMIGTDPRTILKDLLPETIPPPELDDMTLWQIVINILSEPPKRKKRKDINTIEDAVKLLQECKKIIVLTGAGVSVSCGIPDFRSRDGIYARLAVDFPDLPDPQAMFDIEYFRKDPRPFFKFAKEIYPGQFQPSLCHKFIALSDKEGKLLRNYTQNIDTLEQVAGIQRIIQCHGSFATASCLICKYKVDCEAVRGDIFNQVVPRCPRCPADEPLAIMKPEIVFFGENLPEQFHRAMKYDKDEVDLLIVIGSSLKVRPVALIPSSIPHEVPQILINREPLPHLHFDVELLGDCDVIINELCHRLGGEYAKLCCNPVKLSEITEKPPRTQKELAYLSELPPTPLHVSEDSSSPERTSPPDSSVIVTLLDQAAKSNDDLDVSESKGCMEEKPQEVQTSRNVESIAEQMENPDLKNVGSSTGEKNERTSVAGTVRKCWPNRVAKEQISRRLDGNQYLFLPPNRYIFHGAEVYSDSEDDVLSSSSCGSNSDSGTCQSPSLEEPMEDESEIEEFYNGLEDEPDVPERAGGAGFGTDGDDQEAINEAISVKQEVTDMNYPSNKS

[5] = tested on: Mus musculus; experiment: Anti-diabetic activity in ob/ob mouse assessed as change in serum triglyceride levels at 8.4 uM/kg administered via oral gavage daily for 4 days measured on day 5 relative to control; type: functional
[6] = target: T3, Peroxisome proliferator-activated receptor gamma (Homo sapiens, UniProt P37231); experiment: Transactivation of human Gal4-fused PPARgamma LBD expressed in African green monkey COS7 cells after 24 hrs by luciferase reporter gene assay; type: cell-based; settings: read-out: EC50
T3 sequence (P37231 whole entry): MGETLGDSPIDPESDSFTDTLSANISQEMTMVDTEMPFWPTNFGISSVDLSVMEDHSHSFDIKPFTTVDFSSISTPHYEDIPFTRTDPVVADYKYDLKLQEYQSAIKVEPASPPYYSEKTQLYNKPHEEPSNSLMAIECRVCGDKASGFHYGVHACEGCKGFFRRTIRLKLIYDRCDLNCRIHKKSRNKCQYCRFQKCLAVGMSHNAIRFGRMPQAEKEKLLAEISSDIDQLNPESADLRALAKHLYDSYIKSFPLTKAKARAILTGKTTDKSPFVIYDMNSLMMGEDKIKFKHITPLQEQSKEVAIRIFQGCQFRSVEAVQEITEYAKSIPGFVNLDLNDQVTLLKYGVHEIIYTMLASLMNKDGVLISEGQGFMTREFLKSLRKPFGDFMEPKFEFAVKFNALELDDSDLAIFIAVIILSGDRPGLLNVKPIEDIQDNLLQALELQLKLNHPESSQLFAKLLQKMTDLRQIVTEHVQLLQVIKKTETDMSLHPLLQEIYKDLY

[7] = tested on: Mus musculus; experiment: Anti-diabetic activity in ob/ob mouse assessed as change in serum insulin levels at 8.4 uM/kg administered via oral gavage daily for 4 days measured on day 5 relative to control; type: functional
[8] = target: T4, Peroxisome proliferator-activated receptor delta (Homo sapiens) (UniProt Q03181); experiment: Transactivation of human PPARdelta at 10 uM
T4 sequence (whole entry): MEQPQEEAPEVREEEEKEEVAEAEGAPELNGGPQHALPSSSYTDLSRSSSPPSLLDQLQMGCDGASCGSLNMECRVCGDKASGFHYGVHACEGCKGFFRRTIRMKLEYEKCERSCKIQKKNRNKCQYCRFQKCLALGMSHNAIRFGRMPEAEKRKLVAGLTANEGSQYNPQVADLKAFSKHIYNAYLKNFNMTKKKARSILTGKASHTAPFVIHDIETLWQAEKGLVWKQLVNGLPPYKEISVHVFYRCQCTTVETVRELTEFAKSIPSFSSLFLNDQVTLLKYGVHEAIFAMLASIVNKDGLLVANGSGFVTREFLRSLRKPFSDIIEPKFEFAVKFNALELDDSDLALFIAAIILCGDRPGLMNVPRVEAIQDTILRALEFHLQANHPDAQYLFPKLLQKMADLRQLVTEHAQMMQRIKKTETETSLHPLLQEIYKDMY

[9] = target: T5, Peroxisome proliferator-activated receptor alpha (Homo sapiens, UniProt Q07869); experiment: Transactivation of human Gal4-fused PPARalpha LBD expressed in African green monkey COS7 cells after 24 hrs by luciferase reporter gene assay; type: cell-based
T5 sequence (Q07869 whole entry): T1 sequence (whole entry)

[10] = tested on: Mus musculus; experiment: Anti-diabetic activity in ob/ob mouse assessed as change in serum glucose levels at 8.4 uM/kg administered via oral gavage daily for 4 days measured on day 5 relative to control; type: functional
[11] = tested on: Mus musculus; experiment: Toxicity in ob/ob mouse assessed as change in body weight at 8.4 uM/kg administered via oral gavage daily for 4 days measured on day 5 relative to control; type: organism-based; settings: in vivo, 96 h, 8.4 µmol/kg

| SMILES | Activity [1] | Emax [2] | Activity [3] | Activity [4] | Activity [5] | EC50 [6] | Activity [7] | Activity [8] | EC50 [9] | Activity [10] | Activity [11] |
| --- | --- | --- | --- | --- | --- | --- | --- | --- | --- | --- | --- |
| COc1ccc(OC(=O)N(CC(=O)O)Cc2ccc(OCCc3nc(-c4ccccc4)oc3C)cc2)cc1 [MURAGLITAZAR] | 178% | 84% | 206% | – | – | – | – | – | – | – | – |
| CN(CCOc1ccc(CC2SC(=O)NC2=O)cc1)c1ccccn1 (centres undefined) [ROSIGLITAZONE] | 119% | – | 100% | 5% | – | – | – | – | – | – | – |
| Cc1oc(-c2ccccc2)nc1CCOc1ccc(C[C@H](Nc2ccccc2C(=O)c2ccccc2)C(=O)O)cc1 [FARGLITAZAR] | 969% | 231% | 162% | – | – | – | – | – | – | – | – |
| CCOC(Cc1ccc(OCCn2c(=O)sc3cc(/C=C/c4cc(OC)cc(OC)c4)ccc32)cc1)C(N)=O (centres undefined) | -43% | 35% | – | -12% | -32% | < 10 nM | -26% | inactive | 1000 nM | -27% | 158% |
| CCOC(Cc1ccc(OCCn2c(=O)sc3cc(/C=C/c4cc(O)cc(O)c4)ccc32)cc1)C(=O)O (centres undefined) | -39% | 29% | – | 92% | -52% | 1000 nM | -40% | inactive | 10000 nM | -45% | 110% |
| CCOC(=O)C(Cc1ccc(OCCn2c(=O)sc3cc(/C=C/c4cc(O)cc(O)c4)ccc32)cc1)OCC (centres undefined) | 134% | 76% | – | 59% | -19% | 10 nM | -37% | inactive | 10000 nM | -35% | 49% |
| CCOC(=O)C(Cc1ccc(OCCn2c(=O)sc3cc(/C=C/c4cc(OC)cc(OC)c4)ccc32)cc1)OCC(F)(F)F (centres undefined) | -62% | 136% | – | -7% | -3% | 50 nM | -14% | inactive | 10000 nM | -11% | 61% |
| CCOC(=O)C(Cc1ccc(OCCn2c(=O)sc3cc(C(=O)/C=C/c4cc(O)cc(O)c4)ccc32)cc1)OCC (centres undefined) | 243% | 42% | – | 0% | -28% | 20 nM | -4% | inactive | 10000 nM | -30% | 91% |
| CCOC(=O)C(Cc1ccc(OCCn2c(=O)sc3cc(C(=O)/C=C/c4cc(O)cc(O)c4)ccc32)cc1)OCC(F)(F)F (centres undefined) | 180% | 12% | – | 24% | -8% | 30 nM | 11% | inactive | 10000 nM | -5% | 75% |
